What was measured:
[1] = tested on: Melanocytes (B16 cell line); assay: Melanogenesis inhibition assay (melanin level and cellular protein level); format: cell-based; conditions: 3 days incubation; for Protein level: cellular proteins (Bradford) as number of viable cells; for Melanin level: optical density at 475 nm
Protocol: Melanocytes (B16 cell line) are inoculated in standard medium of cell culture with fetal calf serum (FCS). After an incubation of 3 days at 37° C. and CO2=5%, growth medium is exchanged for standard medium with a range of concentrations for each compound to be tested and a control without ingredient. After an incubation of 3 days, the level of melanin is measured by recording the optical density at 475 nm. After washing the cells by a balanced salt, and homogenization in a solution of 0.1 M NaOH, the number of viable cells is determined by the level of cellular proteins (Bradford's method).
The results are expressed in % against control (cell culture medium without compound) as a mean on 2 to 3 assays, each in triplicate.

[2] = Stability assay (visual coloration of solutions on storage); format: physicochemical; design: key to Coloration: —: no coloration; +: moderate coloration; ++: strong coloration; conditions: for Coloration: room temperature, aqueous buffer:ethanol 1:1, away from day light; for Stability in protic solution: up to 120 days of incubation
Protocol: 5-hydroxy-L-tryptophan, 6-fluoro-DL-tryptophan, 4-methyl-DL-tryptophan were dissolved at 1 or 10 mg/ml in a solution aqueous buffer at ph 5.5 and pH 7 (citric acid 0.1 M, Na2HPO4 0.2 M):ethanol 1:1 vol:vol. The solutions are kept away from day light and stored at room temperature. After 30, 60 and 120 days, the coloration of the solutions are visually assessed.

| SMILES | Coloration ([2]; pH 5.5, 30 days) | Coloration ([2]; pH 5.5, 60 days) | Coloration ([2]; pH 5.5, 120 days) | Coloration ([2]; pH 7.0, 30 days) | Coloration ([2]; pH 7.0, 60 days) | Coloration ([2]; pH 7.0, 120 days) | Stability in protic solution ([2]; pH 5.5 and 7) | Coloration of the solution (in words) ([2]; at 30 days, protic solution, pH 5.5 and 7) | Protein level ([1]; dose 0.001 % (w/v)) [%/control] | Melanin level ([1]; dose 0.001 % (w/v)) [%/control] | Protein level ([1]; dose 0.003 % (w/v)) [%/control] | Melanin level ([1]; dose 0.003 % (w/v)) [%/control] | Protein level ([1]; dose 0.01 % (w/v)) [%/control] | Melanin level ([1]; dose 0.01 % (w/v)) [%/control] |
| --- | --- | --- | --- | --- | --- | --- | --- | --- | --- | --- | --- | --- | --- | --- |
| Cc1ccc2c(CC(N)C(=O)O)c[nH]c2c1 (racemic) [6-Methyl-DL-Tryptophan] |  |  |  |  |  |  |  |  |  |  | 102 | 81 | 100 | 39 |
| COc1ccc2[nH]cc(CC(N)C(=O)O)c2c1 (racemic) [5-Methoxy-DL-Tryptophan] |  |  |  |  |  |  |  |  | 96 | 90 | 92 | 65 |  |  |
| Cc1cccc2[nH]cc(CC(N)C(=O)O)c12 (racemic) [4-Methyl-DL-Tryptophan] | — | — | — | — | — | — | high stability |  | 97 | 56 | 100 | 33 |  |  |

Continued, in another order:

| Coloration ([2]; pH 5.5, 30 days) | Coloration ([2]; pH 5.5, 60 days) | Coloration ([2]; pH 5.5, 120 days) | Coloration ([2]; pH 7.0, 30 days) | Coloration ([2]; pH 7.0, 60 days) | Coloration ([2]; pH 7.0, 120 days) | Stability in protic solution ([2]; pH 5.5 and 7) | Coloration of the solution (in words) ([2]; at 30 days, protic solution, pH 5.5 and 7) | SMILES | Protein level ([1]; dose 0.001 % (w/v)) [%/control] | Melanin level ([1]; dose 0.001 % (w/v)) [%/control] | Protein level ([1]; dose 0.003 % (w/v)) [%/control] | Melanin level ([1]; dose 0.003 % (w/v)) [%/control] | Protein level ([1]; dose 0.01 % (w/v)) [%/control] | Melanin level ([1]; dose 0.01 % (w/v)) [%/control] |
| --- | --- | --- | --- | --- | --- | --- | --- | --- | --- | --- | --- | --- | --- | --- |
| — | — | — | — | — | — | high stability |  | NC(Cc1c[nH]c2cc(F)ccc12)C(=O)O (racemic) [6-Fluoro-DL-Tryptophan] | 106 | 44 | 108 | 10 |  |  |
| ++ | ++ | ++ | ++ | ++ | ++ |  | visible dark-brown coloration | N[C@@H](Cc1c[nH]c2ccc(O)cc12)C(=O)O [5-hydroxy-L-tryptophan, 5-Hydroxy-L-Tryptophan, reference compound] |  |  |  |  |  |  |

From patent US20110236330A1, “Skin Whitening” (priority 2008, published 2011)
